Source: patent US5158939A, “Method of stimulating the immune systems of animals and compositions useful therefor” (priority 1990, dated 1992)
Entries after “also recorded” stand apart in the source; their conditions may differ. Read-outs that look alike come from different tables or passages of the source.

What was measured:
[1] = system: RAW 264.7 murine macrophage cells; conditions: as reported; cited from earlier work
serum TNF = assay: Serum TNF rise after E. coli LPS in mice; format: in vivo; conditions: RsDPLA 100 μg and 1 mg, 60 and 90 min before E. coli LPS 1 μg and 5 μg i.p.
70Z/3 cells = format: cell-based
Description: ^1 Corrected for background of 5% fluorescence.
^2 The DPLA stimulated 7OZ/3 preB cells to the extent of from 2.5-6.0
fluorescence at concentrations of 1.0-10 mg/ml. In the competitive
inhibition experiment, the cells were first exposed to DPLA for 2 hours
before adding the ReLPS. In all experiments, the ReLPS and DPLA were
complexed with bovine serum albumin.
In this experiment, 0.1 μg/ml of ReLPS and 3.0 μg/ml of DPLA were
^1 The time of pre/post treatment of 7OZ/3 cells with DPLA relative t
the time of addition of ReLPS are indicated.

[2] = Toxicity / endotoxic activity (general statements); conditions: in words
RAW 264.7 cells = assay: TNF production by RAW 264.7 cells, dilution for 50% killing of indicator cell line L929; format: cell-based, murine
Description: The TNF unit is derived by determining how far one can dilute the supernatant of the culture to achieve 50% killing of an indicator cell line.
TNF unit was derived by determining dilution of culture supernatant that kills 50 percent of the indicator cell line.
DPLA was added 2 hours before exposing culture to ReLPS. The ReLPS and DPLA were complexed with bovine serum albumin.^1

Compound: CCCCCCC=CCCCCCC(=O)OC(CCCCCCCCCCC)CC(=O)NC1C(OCC2OC(OP(=O)(O)O)C(NC(=O)CC(=O)CCCCCCCCCCC)C(OC(=O)CC(O)CCCCCCC)C2O)OC(CO)C(OP(=O)(O)O)C1OC(=O)CC(O)CCCCCCC (stereo not drawn) [DPLA]
- blocking of LPS-induced TNF [1]: competes successfully with toxic LPS to block the induction of TNF in a dose-dependent manner
- induction of TNF [1]: fails to induce the synthesis and release of TNF by macrophages
- rise in serum TNF (serum TNF): blocked a rise in serum TNF
- Activation (% fluorescence) (70Z/3 cells; Table 4, DPLA 0.1 μg/ml 2 h before ReLPS 0.1 μg/ml): 52 % fluorescence
- Activation (% fluorescence) (70Z/3 cells; Table 4, DPLA 0.3 μg/ml 2 h before ReLPS 0.1 μg/ml): 45 % fluorescence
- Activation (% fluorescence) (70Z/3 cells; Table 4, DPLA 1.0 μg/ml 2 h before ReLPS 0.1 μg/ml): 26.5 % fluorescence
- Activation (% fluorescence) (70Z/3 cells; Table 4, DPLA 3.0 μg/ml 2 h before ReLPS 0.1 μg/ml): 14 % fluorescence
- Activation (% fluorescence) (70Z/3 cells; Table 5, DPLA 1.0 μg/ml, ReLPS 0): 3.5 % fluorescence
- Activation (% fluorescence) (70Z/3 cells; Table 5, DPLA 1.0 μg/ml, ReLPS 0.1 μg/ml): 28.5 % fluorescence
- Activation (% fluorescence) (70Z/3 cells; Table 5, DPLA 1.0 μg/ml, ReLPS 0.3 μg/ml): 48.5 % fluorescence
- Activation (% fluorescence) (70Z/3 cells; Table 5, DPLA 1.0 μg/ml, ReLPS 1.0 μg/ml): 57.5 % fluorescence
- Activation (% fluorescence) (70Z/3 cells; Table 5, DPLA 1.0 μg/ml, ReLPS 10 μg/ml): 75.5 % fluorescence
- Activation (% fluorescence) (70Z/3 cells; Table 5, DPLA 3.0 μg/ml, ReLPS 0): 2.56 % fluorescence
- Activation (% fluorescence) (70Z/3 cells; Table 5, DPLA 3.0 μg/ml, ReLPS 0.1 μg/ml): 13.5 % fluorescence
- Activation (% fluorescence) (70Z/3 cells; Table 5, DPLA 3.0 μg/ml, ReLPS 0.3 μg/ml): 30 % fluorescence
- Activation (% fluorescence) (70Z/3 cells; Table 5, DPLA 3.0 μg/ml, ReLPS 1.0 μg/ml): 55 % fluorescence
- Activation (% fluorescence) (70Z/3 cells; Table 5, DPLA 3.0 μg/ml, ReLPS 10 μg/ml): 77 % fluorescence
- Activation (% fluorescence) (70Z/3 cells; Table 5, DPLA 10 μg/ml, ReLPS 0.1 μg/ml): 4.5 % fluorescence
- Activation (% fluorescence) (70Z/3 cells; Table 5, DPLA 10 μg/ml, ReLPS 0.3 μg/ml): 11 % fluorescence
- Activation (% fluorescence) (70Z/3 cells; Table 5, DPLA 10 μg/ml, ReLPS 1.0 μg/ml): 25 % fluorescence
- Activation (% fluorescence) (70Z/3 cells; Table 5, DPLA 10 μg/ml, ReLPS 10 μg/ml): 69 % fluorescence
- Activation (% fluorescence) (70Z/3 cells; Table 6, DPLA 3.0 μg/ml added at 0 h relative to ReLPS 0.1 μg/ml): 10.5 % fluorescence
- Activation (% fluorescence) (70Z/3 cells; Table 6, DPLA 3.0 μg/ml added at 2 h relative to ReLPS 0.1 μg/ml): 20 % fluorescence
- Activation (% fluorescence) (70Z/3 cells; Table 6, DPLA 3.0 μg/ml added at 4 h relative to ReLPS 0.1 μg/ml): 24 % fluorescence
- Activation (% fluorescence) (70Z/3 cells; Table 6, DPLA 3.0 μg/ml added at 6 h relative to ReLPS 0.1 μg/ml): 24.5 % fluorescence
- Activation (% fluorescence) (70Z/3 cells; Table 6, DPLA 3.0 μg/ml added at 8 h relative to ReLPS 0.1 μg/ml): 9.5 % fluorescence
- Activation (% fluorescence) (70Z/3 cells; Table 6, DPLA 3.0 μg/ml added at 16 h relative to ReLPS 0.1 μg/ml): 44 % fluorescence
- Activation (% fluorescence) (70Z/3 cells; Table 6, DPLA 3.0 μg/ml added at 20 h relative to ReLPS 0.1 μg/ml): 54 % fluorescence
- Activation (% fluorescence) (70Z/3 cells; Table 6, DPLA 3.0 μg/ml added at 24 h relative to ReLPS 0.1 μg/ml): 55.5 % fluorescence
- Activation (% fluorescence) (70Z/3 cells; Table 6, DPLA 3.0 μg/ml added at -2 h relative to ReLPS 0.1 μg/ml): 11 % fluorescence
- antagonism of LPS-induced activation of 70Z/3 pre-B cells (70Z/3 cells; in words): effective antagonist in the LPS-induced activation of 70Z/3 pre-B cells; also recorded: block LPS-inducted immunoglobulin synthesis by 70Z/3 pre-B cells
- endotoxic activity [2]: nontoxic
- endotoxic activity ([2]; listed as R. sphaeroides DPLA): not endotoxic
- endotoxic activity ([2]; listed as pentaacyl DPLA): lacks endotoxic activity; also recorded: no endotoxic activity
- induction of TNF (RAW 264.7 cells; DPLA alone 10^4 ng/ml): measurable but low level in the induction of TNF
- inhibition at 0.01 µg/mL (RAW 264.7 cells; Mus musculus, RAW264.7, Table 3, DPLA 10 ng/ml, ReLPS 1.0 ng/ml (ReLPS:DPLA 1:10), read-out: Inhibition of induction of TNF by ReLPS): 55%
- inhibition at 0.1 µg/mL (RAW 264.7 cells; Mus musculus, RAW264.7, Table 3, DPLA 100 ng/ml, ReLPS 1.0 ng/ml (1:100), read-out: Inhibition of induction of TNF by ReLPS): 95%
- inhibition at 10 µg/mL (RAW 264.7 cells; Mus musculus, RAW264.7, Table 3, DPLA 10000 ng/ml, ReLPS 1.0 ng/ml (1:10^4), read-out: Inhibition of induction of TNF by ReLPS): 81%
- induction of TNF (RAW 264.7 cells; RAW 264.7 cells, indicator cell line L929): not effective in the induction of TNF; also recorded: lack of induction
